Source: patent US12331040B2 (Karyopharm Therapeutics Inc., priority 2013, dated 2025)
pIC50: −log10 of the molar value. Read-outs that look alike come from different tables or passages of the source.

What was measured:
[1] = tested on: MDA-MB-468 xenografts; test: MDA-MB-468 (triple negative breast cancer) xenograft in CB-17 SCID mice; format: in vivo, mouse; details: for mean tumor volume of MDA-MB-468 xenografts: CB-17 SCID mice, 15 mg/kg PO once daily Monday through Friday; for toxicity (side effects, weight loss): MDA-MB-468 xenograft model, minimal or no side effects or weight loss up to 200 mg/kg daily dose
Protocol: The oncological impact of Compound 504 and Compound 510 were tested using a MDA-MB-468 (triple negative breast cancer) xenograft model in CB-17 SCID mice. MDA-MB-468 (ATCC #HTB-102) breast adenocarcinoma cells were obtained from ATCC. The cells were grown in high glucose DMEM supplemented with 10% fetal bovine serum, 1% penicillin and streptomycin, and 2 mM L-glutamine. Cells were sub-cultured by dilution at a ratio of 1:4. MDA-MB-468 cells were harvested by trypsinization and counted using a hemocytometer. Cells were resuspended in PBS at a 4×10^8 cells per mL. Cells were placed on ice and mixed with an equal volume of Matrigel (BD Biosciences CB-40234). Thirty-two (32) CB-17 SCID mice were inoculated sub-cutaneously in the left flank with 4×10^7 MDA-MB-468 cells. Treatment was initiated when the tumors reached a mean volume of about 100 mm^3. Mice were allocated to four (4) groups of eight (8) mice such that mean tumor volume was about 100 mm^3 in each group. Mice were treated with vehicle, standard of care/positive control drug (paclitaxel), Compound 504 or Compound 510. Compound 504 (15 mg/kg) and Compound 510 (15 mg/kg) were given orally (PO) once daily on Monday through Friday each week. Animals' weights and condition were recorded daily, and tumors were measured on Mondays, Wednesdays, and Fridays.

[2] = tested on: HT-29 cells; test: MTT cell proliferation assay; format: cell-based; details: Homo sapiens, 72-hour MTT
Protocol: (§1) The MTT cell proliferation assay was used to study the cytotoxic properties of the compounds. The assay was performed according to the method described by Roche Molecular Biochemicals, with minor modifications. The assay is based on the cleavage of the tetrazolium salt, MTT, in the presence of an electron-coupling reagent. The water-insoluble formazan salt produced must be solubilized in an additional step. Cells grown in a 96-well tissue culture plate were incubated with the MTT solution for approximately 4 hours. After this incubation period, a water-insoluble formazan dye formed. After solubilization, the formazan dye was quantitated using a scanning multi-well spectrophotometer (ELISA reader). […] The cells were seeded at 5,000-10,000 cells in each well of 96-well plate in 100 μL of fresh culture medium and were allowed to attach overnight. The stock solutions of the compounds were diluted in 100 μL cell culture medium to obtain eight concentrations of each test compound, ranging from 1 nM to 30 μM. […] All optical densities were measured at 490 nm using a Vmax Kinetic Microplate Reader (Molecular Devices). In most cases, the assay was performed in duplicate and the results were presented as a mean percent inhibition to the negative control±SE. The following formula was used to calculate the percent of inhibition: Inhibition (%)=(1−(ODo/OD))×100.
(§2) Compounds 504, 510, 525 and 585 were further tested against selected solid and hematological cancer cell lines and selected normal cell lines in a 72-hour MTT cell proliferation assay.

[3] = tested on: M24 cells; test: MTT cell proliferation assay; format: cell-based; details: Homo sapiens
[4] = tested on: MRC-5 cells; test: MTT cell proliferation assay; format: cell-based; details: Homo sapiens, MRC5; MRC-5 cell line
[5] = tested on: U2OS cells; test: BrdU incorporation and cell cycle analysis by flow cytometry in U2OS cells; format: cell-based, human; details: 1 μM, BrdU/7-AAD flow cytometry
Protocol: U2OS cells were treated with DMSO or 1 μM Compound 585 for one, two or three days. At each time point, cells were treated with 10 μM BrdU for 2 hours, and then collected by trypsinization. Cells were subsequently washed, fixed and stained for BrdU and total DNA (7-AAD). BrdU incorporation and cell cycle analysis was performed using flow cytometry on a BD Fortessa Analyzer. Data was then analyzed using FCS Express 4 software.

[6] = tested on: cancer cell lines; test: 72-hour MTT cell proliferation assay, summary over the cancer cell lines tested; format: cell-based
Protocol: as §1, §2

[7] = tested on: U2OS cells; test: Staining of β-catenin, cofilin and F-actin in fixed U2OS cells; format: cell-based, human; details: 1 μM, 48 hours
Protocol: U2OS cells were grown on coverslips and treated with DMSO or 1 μM Compound 585 for 48 hours, at which time the cells were fixed and stained. The cells were labeled with phospho- or total β-catenin antibodies; phospho- or total cofilin antibodies; or ALEXA-FLUORO 488 phalloidin. Both phospho- and total β-catenin were reduced by treatment with Compound 585. Both phospho- and total cofilin were reduced by treatment with Compound 585. ALEXA-FLUORO 488 phalloidin was used to stain F-actin.

[8] = tested on: Hep G2 cells; test: MTT cell proliferation assay; format: cell-based; details: Homo sapiens, HepG2; Hep G2 cells; 72-hour MTT; read-out: Hep G2 MTT IC50
[9] = tested on: HL-60 cells; test: MTT cell proliferation assay; format: cell-based; details: Homo sapiens; HL-60 cells; 72-hour MTT; read-out: HL-60 MTT IC50
[10] = tested on: U2OS cells; test: Western blots of autophagy, stress and cell cycle markers in U2OS cells; format: cell-based, human; details: 1 μM or 10 μM, 48 hours, Western blot
Protocol: U2OS cells were plated in a 6-well plate overnight. The next day, the cells were treated with 1 μM or 10 μM Compound 585 for 48 hours, then collected and lysed in RIPA buffer. The lysate was run on SDS-PAGE and Western blots of PAK4, PUMA, CHOP, p21, cyclin D, MLH1, p-AMPK, AMPK and LC3 were performed.

[11] = M24 cell line, read-out: MTT Assay IC50, M24
[12] = M24 cells, 72-hour MTT, read-out: M24 MTT IC50

Row | SMILES | mean tumor volume of MDA-MB-468 xenografts [1] | toxicity (side effects, weight loss) [1] | pIC50 [2] | pIC50 [3, 11] | pIC50 [3, 12] | pIC50 [4] | cell cycle changes: Sub-G1 phase [5] | cell cycle changes: S phase and G2 phase ([5]; at 48-72 hours) | share of the hematological cancer cell lines tested with an IC50 of less than 500 nM ([6]; 30/33 hematological cancer cell lines) [%] | share of the solid cancer cell lines tested with an IC50 of less than 500 nM ([6]; 42/93 solid cancer cell lines) [%] | share of the cancer cell lines tested with an IC50 of less than 1 μM ([6]; 91/126 cancer cell lines) [%] | stress fiber formation (F-actin, phalloidin) [7] | phospho- and total cofilin ([7]; antibody staining) | phospho- and total β-catenin ([7]; antibody staining) | pIC50 [8] | pIC50 [9] | cell cycle proteins, p21 and cyclin D1 [10] | markers of stress response and autophagy (AMPK phosphorylation, short form of LC3 lysosome marker) [10]
1 | Nc1ccc(/C=C/C(=O)NCc2cc3cc(-c4ccc(S(=O)(=O)N5CCOCC5)cc4)cc(Cl)c3o2)cn1 [Compound 504, (E)-3-(6-Aminopyridin-3-yl)-N-((7-chloro-5-(4-(morpholinosulfonyl)phenyl)benzofuran-2-yl)methyl)acrylamide] | tumor growth inhibition | without major toxicity | 6.32 | 5.30 to 7.00 | 7.30 | > 7.00 |  |  |  |  |  |  |  |  |  |  |  | 
2 | Nc1ccc(/C=C/C(=O)NCc2cc3cc(-c4ccc(C(=O)N5CCOCC5)cc4)cc(C(F)(F)F)c3o2)cn1 [Compound 510, (E)-3-(6-aminopyridin-3-yl)-N-((5-(4-(morpholine-4-carbonyl)phenyl)-7-(trifluoromethyl)benzofuran-2-yl)methyl)acrylamide] | tumor growth inhibition | without major toxicity | 5.03 | 5.30 to 7.00 | 6.54 | > 7.00 |  |  |  |  |  |  |  |  |  |  |  | 
3 | Nc1ccc(/C=C/C(=O)NCc2cc3cc(-c4ccc(C(=O)N5CCC(F)(F)CC5)cn4)cc(C(F)(F)F)c3o2)cn1 [Compound 585, (E)-3-(6-aminopyridin-3-yl)-N-((5-(5-(4,4-difluoropiperidine-1-carbonyl)pyridin-2-yl)-7-(trifluoromethyl)benzofuran-2-yl)methyl)acrylamide] |  |  |  |  |  |  | started to appear around 48-72 hours | loss of S phase and increase in G2 phase | 91 | 45 | 72 | increase in stress fiber formation | reduced | reduced | 6.80 | 6.68 | reduced | induced markers of stress response and autophagy
